Assay results taken from ChEMBL document CHEMBL3112505, “Discovery of novel indazole derivatives as dual angiotensin II antagonists and partial PPARγ agonists” (Bioorg Med Chem Lett, 2014).
pEC50, pIC50: −log10 of the molar value. The source made the active and inactive calls. The rule behind the calls is not given here.

What was measured:
[1] = target: T1, Type-1 angiotensin II receptor (Homo sapiens, UniProt P30556); assay: Antagonist activity at human AT1 receptor expressed in CHO cells measured after overnight incubation by luciferase reporter gene assay; type: cell-based
T1 sequence (P30556 whole entry): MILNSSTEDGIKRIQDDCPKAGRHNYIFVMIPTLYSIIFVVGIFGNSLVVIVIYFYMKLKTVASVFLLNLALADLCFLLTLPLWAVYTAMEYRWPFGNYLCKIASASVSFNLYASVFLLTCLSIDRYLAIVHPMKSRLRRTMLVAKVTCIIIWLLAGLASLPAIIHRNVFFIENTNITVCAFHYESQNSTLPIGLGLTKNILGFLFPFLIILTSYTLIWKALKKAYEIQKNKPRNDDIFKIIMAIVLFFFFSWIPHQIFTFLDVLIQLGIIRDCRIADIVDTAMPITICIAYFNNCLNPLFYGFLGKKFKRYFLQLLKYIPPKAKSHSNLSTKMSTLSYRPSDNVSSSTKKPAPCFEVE

[2] = test system: Rattus norvegicus; assay: Reduction in triglyceride level in Zucker fa/fa rat plasma at 75 mg/kg, po qd for 5 days relative to vehicle-treated control control; type: functional, organism-based; parameters: dose 75 mg/kg
[3] = Clearance in Zucker fa/fa rat at 5.2 mg/kg, iv; type: ADME, organism-based; parameters: dose 5.2 mg/kg, route intravenous; conditions: in vivo
[4] = target: T2, Peroxisome proliferator-activated receptor gamma (Homo sapiens) (UniProt P37231); assay: Partial agonist activity at human PPARgamma expressed in CV-1 cells by reporter gene assay relative to rosiglitazone; type: cell-based
T2 sequence (whole entry): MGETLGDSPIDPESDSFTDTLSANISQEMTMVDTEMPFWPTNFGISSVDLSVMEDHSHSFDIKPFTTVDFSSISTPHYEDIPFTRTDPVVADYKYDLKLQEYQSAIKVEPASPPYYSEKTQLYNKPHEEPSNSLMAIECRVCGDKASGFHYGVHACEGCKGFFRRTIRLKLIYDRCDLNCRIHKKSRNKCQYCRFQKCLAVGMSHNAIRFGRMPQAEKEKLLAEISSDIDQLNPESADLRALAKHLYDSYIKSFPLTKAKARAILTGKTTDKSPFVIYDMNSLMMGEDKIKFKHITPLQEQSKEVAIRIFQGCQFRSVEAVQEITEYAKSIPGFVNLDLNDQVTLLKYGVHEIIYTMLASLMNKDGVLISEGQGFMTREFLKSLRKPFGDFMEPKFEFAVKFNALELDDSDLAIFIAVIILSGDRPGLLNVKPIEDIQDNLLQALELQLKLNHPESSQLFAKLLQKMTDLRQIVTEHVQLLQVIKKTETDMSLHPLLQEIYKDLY

[5] = Half life in Zucker fa/fa rat at 5.2 mg/kg, iv; type: ADME, organism-based; parameters: dose 5.2 mg/kg, route intravenous; conditions: in vivo
[6] = test system: Rattus norvegicus; assay: Reduction in insulin level in Zucker fa/fa rat plasma at 75 mg/kg, po qd for 5 days relative to vehicle-treated control control; type: functional, organism-based; parameters: dose 75 mg/kg
[7] = test system: Rattus norvegicus; assay: Reduction in free fatty acid level in Zucker fa/fa rat plasma at 75 mg/kg, po qd for 5 days relative to vehicle-treated control control; type: functional, organism-based; parameters: dose 75 mg/kg
[8] = test system: Rattus norvegicus; assay: Antihypertensive activity in dosed SHR NCrl rat assessed as decrease in diastolic blood pressure at 10 mg/kg, po administered daily for 12 days relative to baseline control; type: functional, organism-based; parameters: dose 10 mg/kg; conditions: Artery
[9] = AUC in Zucker fa/fa rat at 30 mg/kg, po; type: ADME, organism-based; parameters: dose 30 mg/kg, route oral; conditions: plasma
[10] = AUC in Zucker fa/fa rat at 5.2 mg/kg, iv; type: ADME, organism-based; parameters: dose 5.2 mg/kg, route intravenous; conditions: plasma
[11] = target: T3, Peroxisome proliferator-activated receptor gamma (Mus musculus, UniProt P37238); assay: Partial agonist activity at mouse PPARgamma expressed in CV-1 cells by reporter gene assay; type: cell-based
T3 sequence (P37238 whole entry): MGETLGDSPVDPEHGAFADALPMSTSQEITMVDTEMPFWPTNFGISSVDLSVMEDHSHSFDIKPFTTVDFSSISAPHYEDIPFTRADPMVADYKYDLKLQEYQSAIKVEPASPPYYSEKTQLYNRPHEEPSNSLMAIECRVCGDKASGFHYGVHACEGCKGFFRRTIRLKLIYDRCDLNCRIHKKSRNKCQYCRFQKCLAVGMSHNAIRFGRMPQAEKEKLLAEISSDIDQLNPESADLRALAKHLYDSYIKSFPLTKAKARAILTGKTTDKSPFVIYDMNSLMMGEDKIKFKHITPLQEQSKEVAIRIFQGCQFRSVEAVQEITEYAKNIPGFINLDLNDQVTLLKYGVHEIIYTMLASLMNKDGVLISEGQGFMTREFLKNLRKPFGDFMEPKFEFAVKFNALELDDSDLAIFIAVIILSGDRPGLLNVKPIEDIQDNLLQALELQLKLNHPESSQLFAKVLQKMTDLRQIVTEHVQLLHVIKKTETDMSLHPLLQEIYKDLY

[12] = test system: Rattus norvegicus; assay: Antihypertensive activity in dosed SHR NCrl rat assessed as decrease in diastolic blood pressure at 10 mg/kg, po administered daily for 12 days relative to vehicle-treated control control; type: functional, organism-based; parameters: dose 10 mg/kg; conditions: Artery
[13] = test system: Rattus norvegicus; assay: Antihypertensive activity in dosed SHR NCrl rat assessed as decrease in systolic blood pressure at 10 mg/kg, po administered daily for 12 days relative to baseline control; type: functional, organism-based; parameters: dose 10 mg/kg; conditions: Artery
[14] = target: T4, Peroxisome proliferator-activated receptor gamma (Mus musculus) (UniProt P37238); assay: Partial agonist activity at mouse PPARgamma expressed in CV-1 cells by reporter gene assay relative to rosiglitazone; type: cell-based
T4 sequence (whole entry): T3 sequence (P37238 whole entry)

[15] = target: T5, Peroxisome proliferator-activated receptor alpha (Mus musculus, UniProt P23204); assay: Agonist activity at mouse PPARalpha expressed in CV-1 cells by reporter gene assay; type: cell-based
T5 sequence (P23204 whole entry): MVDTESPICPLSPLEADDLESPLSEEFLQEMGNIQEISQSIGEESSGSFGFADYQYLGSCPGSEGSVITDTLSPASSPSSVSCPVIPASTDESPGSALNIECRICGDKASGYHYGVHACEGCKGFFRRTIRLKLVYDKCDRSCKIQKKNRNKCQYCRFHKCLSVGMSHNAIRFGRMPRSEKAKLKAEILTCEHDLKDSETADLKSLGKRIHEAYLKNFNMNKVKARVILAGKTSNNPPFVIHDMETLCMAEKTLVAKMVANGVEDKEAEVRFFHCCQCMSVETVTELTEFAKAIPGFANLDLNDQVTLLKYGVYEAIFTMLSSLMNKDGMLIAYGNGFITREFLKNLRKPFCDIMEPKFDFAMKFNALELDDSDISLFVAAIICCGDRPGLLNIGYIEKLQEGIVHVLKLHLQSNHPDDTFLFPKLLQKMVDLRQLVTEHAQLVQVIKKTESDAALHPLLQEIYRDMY

[16] = target: T6, Peroxisome proliferator-activated receptor delta (Mus musculus, UniProt P35396); assay: Agonist activity at mouse PPARdelta expressed in CV-1 cells by reporter gene assay; type: cell-based
T6 sequence (P35396 whole entry): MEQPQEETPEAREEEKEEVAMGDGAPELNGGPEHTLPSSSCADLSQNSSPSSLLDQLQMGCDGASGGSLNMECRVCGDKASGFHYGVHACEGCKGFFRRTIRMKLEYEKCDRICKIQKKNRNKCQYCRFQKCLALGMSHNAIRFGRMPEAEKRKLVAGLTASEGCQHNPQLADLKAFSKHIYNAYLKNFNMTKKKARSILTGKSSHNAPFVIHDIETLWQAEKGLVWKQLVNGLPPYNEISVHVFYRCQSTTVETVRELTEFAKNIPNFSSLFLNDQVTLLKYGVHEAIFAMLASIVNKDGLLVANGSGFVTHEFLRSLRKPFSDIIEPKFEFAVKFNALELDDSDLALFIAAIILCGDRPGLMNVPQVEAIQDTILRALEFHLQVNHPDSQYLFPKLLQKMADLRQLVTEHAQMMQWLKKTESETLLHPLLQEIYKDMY

[17] = Oral bioavailability in Zucker fa/fa rat at 30 mg/kg; type: ADME, organism-based; conditions: in vivo
[18] = Volume of distribution at steady state in Zucker fa/fa rat 5.2 mg/kg, iv; type: ADME, organism-based; parameters: dose 5.2 mg/kg, route intravenous; conditions: in vivo, read-out: Vdss
[19] = test system: Rattus norvegicus; assay: Antihypertensive activity in dosed SHR NCrl rat assessed as decrease in systolic blood pressure at 10 mg/kg, po administered daily for 12 days relative to vehicle-treated control control; type: functional, organism-based; parameters: dose 10 mg/kg; conditions: Artery
[20] = target: T7, Peroxisome proliferator-activated receptor gamma (Homo sapiens, UniProt P37231); assay: Partial agonist activity at human PPARgamma expressed in CV-1 cells by reporter gene assay; type: cell-based
T7 sequence (P37231 whole entry): T2 sequence (whole entry)

[21] = target: T7, Peroxisome proliferator-activated receptor gamma; assay: Agonist activity at human PPARgamma expressed in CV-1 cells by reporter gene assay; type: cell-based
[22] = target: T3, Peroxisome proliferator-activated receptor gamma; assay: Agonist activity at mouse PPARgamma expressed in CV-1 cells by reporter gene assay; type: cell-based
[23] = target: T8, Peroxisome proliferator-activated receptor alpha (Mus musculus) (UniProt P23204); assay: Agonist activity at mouse PPARalpha expressed in CV-1 cells by reporter gene assay relative to rosiglitazone
T8 sequence (whole entry): T5 sequence (P23204 whole entry)

[24] = target: T4, Peroxisome proliferator-activated receptor gamma (Mus musculus); assay: Agonist activity at mouse PPARgamma expressed in CV-1 cells by reporter gene assay relative to rosiglitazone; type: cell-based

Compound | pIC50 [1] | pEC50 [15] | pEC50 [16] | pEC50 [21] | pEC50 [22] | max activation [24] | other results
CCCCn1c(-c2ccc3nn(CCC)c(Cc4ccc(-c5ccccc5-c5nn[nH]n5)cc4)c3c2)nc2ccccc21 | 8.22 | < 5.00 | < 5.00 |  |  |  | Activity [2]: Active; clearance [3]: 0.66 L/h/kg; max activation [4]: 40%; half-life [5]: 14 h; Activity [6]: Active; Activity [7]: Active; Activity [8]: Active; AUC [9]: 36.3 µg·h/mL; AUC [10]: 8.01 µg·h/mL; pEC50 [11]: 6.57; Activity [12]: Active; Activity [13]: Active; max activation [14]: 18%; bioavailability [17]: 78%; Vd [18]: 7.8 L/kg; Activity [19]: Active; pEC50 [20]: 6.60
CCCc1nn2ccc(-c3nc4ccccc4n3CCC)cc2c1Cc1ccc(-c2ccccc2-c2nnn[nH]2)cc1 | 7.64 | < 5.00 | < 5.00 | 7.10 | 6.89 |  | 
CCC(NC(=O)c1ccc2c(c1)c(C)c(C)n2Cc1ccc(-c2ccccc2C(=O)O)cc1)c1ccccc1 (configuration not stated) | < 5.00 |  |  |  |  |  | 
CCCc1[nH]c2cc(C(=O)NC(CC)c3ccccc3)ccc2c1Cc1ccc(-c2ccccc2C(=O)O)cc1 (configuration not stated) | < 5.00 | 6.10 |  | 8.22 | 8.05 | 36% | max activation [23]: 71%
CCCc1nc2cc(C(=O)NC(CC)c3ccccc3)ccc2n1Cc1ccc(-c2ccccc2C(=O)O)cc1 (configuration not stated) | 6.89 |  |  | 5.58 |  |  | 
CCCc1nn2ccc(C(=O)NC(CC)c3ccccc3)cc2c1Cc1ccc(-c2ccccc2C(=O)O)cc1 (configuration not stated) | 5.77 | < 5.00 | < 5.00 | 6.41 | 5.99 | 32% | 
CCCc1nn2ccc(C(=O)NC(CC)c3ccccc3)cc2c1Cc1ccc(-c2ccccc2-c2nn[nH]n2)cc1 (configuration not stated) |  |  |  |  |  | 9% | 
CCCCn1c(-c2ccc3nn(CCC)c(Cc4ccc(-c5ccccc5C(=O)O)cc4)c3c2)nc2ccccc21 | 7.22 | < 5.00 | < 5.00 | 6.19 | 5.86 | 37% | 
